Data taken from the NIST ThermoML archive (doi:10.1016/j.jct.2017.08.004).

Assay: molar heat capacity at constant pressure
Conditions: 101.33 kPa, Small sample (50 mg) DSC

OC[C@@H](O)[C@@H](O)[C@H](O)[C@H](O)CO [D-mannitol]
Conditions | molar heat capacity at constant pressure [J/K/mol]
372.15 K, Crystal | 293.2
373.15 K, Crystal | 293.84
374.15 K, Crystal | 294.5
375 K, Crystal | 295.33
375.15 K, Crystal | 295.14
376.15 K, Crystal | 295.96
377.15 K, Crystal | 296.71
378.15 K, Crystal | 297.3
379.15 K, Crystal | 297.95
380 K, Crystal | 298.96
380.15 K, Crystal | 298.84
381.15 K, Crystal | 299.49
382.15 K, Crystal | 300.09
383.15 K, Crystal | 300.96
384.15 K, Crystal | 301.85
385 K, Crystal | 302.49
385.15 K, Crystal | 302.62
386.15 K, Crystal | 303.19
387.15 K, Crystal | 303.89
388.15 K, Crystal | 304.75
389.15 K, Crystal | 305.62
390 K, Crystal | 305.94
390.15 K, Crystal | 306.4
391.15 K, Crystal | 307.13
392.15 K, Crystal | 307.69
393.15 K, Crystal | 308.43
394.15 K, Crystal | 309.27
395 K, Crystal | 309.33
395.15 K, Crystal | 309.91
396.15 K, Crystal | 310.41
397.15 K, Crystal | 311.05
398.15 K, Crystal | 311.45
399.15 K, Crystal | 312.11
400 K, Crystal | 312.71
400.15 K, Crystal | 312.88
401.15 K, Crystal | 313.5
402.15 K, Crystal | 314.14
403.15 K, Crystal | 315.02
404.15 K, Crystal | 315.76
405 K, Crystal | 316.13
405.15 K, Crystal | 316.19
406.15 K, Crystal | 317
407.15 K, Crystal | 317.55
408.15 K, Crystal | 318.33
409.15 K, Crystal | 319.11
410 K, Crystal | 319.66
410.15 K, Crystal | 319.62
411.15 K, Crystal | 320.34
412.15 K, Crystal | 321.09
413.15 K, Crystal | 321.71
414.15 K, Crystal | 322.33
415 K, Crystal | 323.4
415.15 K, Crystal | 323.11
416.15 K, Crystal | 323.76
417.15 K, Crystal | 324.47
418.15 K, Crystal | 325.49
419.15 K, Crystal | 326.12
420 K, Crystal | 327.48
420.15 K, Crystal | 327.06
421.15 K, Crystal | 327.89
422.15 K, Crystal | 328.71
423.15 K, Crystal | 329.87
424.15 K, Crystal | 330.92
425 K, Crystal | 332.03
425.15 K, Crystal | 332.36
458.15 K, Liquid | 511.69
459.15 K, Liquid | 511.2
460 K, Liquid | 511.26
460.15 K, Liquid | 510.98
461.15 K, Liquid | 510.64
462.15 K, Liquid | 510.47
463.15 K, Liquid | 510.51
464.15 K, Liquid | 510.42
465 K, Liquid | 511.16
465.15 K, Liquid | 510.6
466.15 K, Liquid | 510.6
467.15 K, Liquid | 510.56
468.15 K, Liquid | 510.86
469.15 K, Liquid | 511.11
470 K, Liquid | 511.05
470.15 K, Liquid | 511.08
471.15 K, Liquid | 511.49
472.15 K, Liquid | 511.38
473.15 K, Liquid | 511.18
474.15 K, Liquid | 511.09
475 K, Liquid | 510.95
475.15 K, Liquid | 510.93
476.15 K, Liquid | 510.9
477.15 K, Liquid | 510.87
478.15 K, Liquid | 510.67
479.15 K, Liquid | 510.62
480 K, Liquid | 510.84
480.15 K, Liquid | 510.66
481.15 K, Liquid | 510.52
482.15 K, Liquid | 510.71
483.15 K, Liquid | 510.62
484.15 K, Liquid | 510.5
485 K, Liquid | 510.74
485.15 K, Liquid | 510.63
486.15 K, Liquid | 510.59
487.15 K, Liquid | 510.6
488.15 K, Liquid | 510.74
490 K, Liquid | 510.64
